# Measured values reported in patent publication US20230278983A1, “INDOLE DERIVATIVES AND USES THEREOF FOR TREATING A CANCER” (Universite Claude Bernard Lyon 1, priority 2020, published 2023).
# pIC50: −log10 of the molar value.
# How the values were obtained:
# MDA-MB231 cells = assay: Cell death, IncuCyte propidium iodide live-cell imaging; type: cell-based, human; settings: 48 hours, increasing concentrations
# 786-O and RPTEC cells = assay: Immunoblotting of CK2-dependent substrate phosphorylation and apoptosis markers; type: cell-based; settings: 48 hours or 24 hours, increasing concentrations
# CK2 = CK2 (Homo sapiens (Human), UniProt P68400); assay: Radiometric CK2 kinase assay; type: biochemical; settings: for inhibition at 0.1 µM: compound at 0.10 μM; for inhibition at 1 µM: compound at 1 μM
# A549 and MDA-MB231 cells = assay: Immunoblotting of CK2-dependent substrate phosphorylation and apoptosis markers; type: cell-based, human; settings: A549 24 hours, MDA-MB231 48 hours
# CK2, sequence (P68400 whole entry): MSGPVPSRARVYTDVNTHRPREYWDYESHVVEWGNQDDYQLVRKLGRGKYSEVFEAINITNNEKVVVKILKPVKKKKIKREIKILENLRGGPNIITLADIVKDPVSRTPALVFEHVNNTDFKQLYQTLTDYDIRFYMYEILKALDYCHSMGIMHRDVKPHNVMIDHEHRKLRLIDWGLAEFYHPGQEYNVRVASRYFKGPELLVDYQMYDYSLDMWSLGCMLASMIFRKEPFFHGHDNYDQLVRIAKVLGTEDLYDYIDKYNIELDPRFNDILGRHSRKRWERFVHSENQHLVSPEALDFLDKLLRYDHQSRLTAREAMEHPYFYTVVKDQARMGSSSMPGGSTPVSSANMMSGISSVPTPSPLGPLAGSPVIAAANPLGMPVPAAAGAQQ
SMILES,pIC50 (CK2),further results
"CCOC(=O)c1[nH]c2ccc(F)cc2c1-c1cn(CC2CCN(CCNS(=O)(=O)c3ccc(CC)cc3)CC2)nn1 [AB526, Ethyl 3-(1-((1-(2-((4-ethylphenyl)sulfonamido)ethyl)piperidin-4-yl)methyl)-1H-1,2,3-triazol-4-yl)-5-fluoro-1H-indole-2-carboxylate]",6.52,"Sensitivity to compound-mediated cell death, MDA-MB231 versus normal MCF10A (MDA-MB231 cells): much more sensitive; CK2-dependent substrate phosphorylation and apoptosis (western blot) (786-O and RPTEC cells): inhibit CK2-dependent substrate phosphorylation in cells and induce apoptosis; Mechanism of CK2 inhibition with respect to ATP (CK2; Lineweaver-Burk analysis (n=2)): non-ATP competitive mechanism of CK2 inhibition; Mechanism of inhibition towards CK2β (CK2; Lineweaver-Burk analysis (n=2)): mixed competitive inhibition towards CK2β; CK2-dependent substrate phosphorylation and apoptosis (western blot) (A549 and MDA-MB231 cells): inhibit CK2-dependent substrate phosphorylation and induce apoptosis in different cancer cell lines"
"CCOC(=O)c1[nH]c2ccc(F)cc2c1-c1cn(CC2CCN(CCNS(=O)(=O)c3ccc(C(F)(F)F)cc3)CC2)nn1 [AB529, Ethyl 5-fluoro-3-(1-((1-(2-((4-(trifluoromethyl)phenyl)sulfonamido)ethyl)piperidin-4-yl)methyl)-1H-1,2,3-triazol-4-yl)-1H-indole-2-carboxylate]",6.15,–
COCc1ccccc1-c1ccc(S(=O)(=O)NCCN2CCC(Cn3cc(-c4c(C(=O)OCC(C)C)[nH]c5ccc(F)cc45)nn3)CC2)cc1 [AB1303],7.48,–
"O=S(=O)(NCCN1CCC(Cn2cc(-c3c[nH]c4ccccc34)nn2)CC1)c1ccccc1 [AB150, N-(2-(4-((4-(1H-Indol-3-yl)-1H-1,2,3-triazol-1-yl)methyl)piperidin-1-yl)ethyl)benzenesulfonamide]",4.31,–
"CC(C)Cc1ccc(S(=O)(=O)NCCN2CCC(Cn3cc(-c4c(C(=O)N5CCOCC5)[nH]c5ccc(F)cc45)nn3)CC2)cc1 [AB1132, N-(2-(4-((4-(5-fluoro-2-(morpholine-4-carbonyl)-1H-indol-3-yl)-1H-1,2,3-triazol-1-yl)methyl)piperidin-1-yl)ethyl)-4-isobutylbenzenesulfonamide]",–,inhibition at 0.1 µM (CK2; ATP 10 μM): 4%
"CC(C)COC(=O)c1[nH]c2ccc(F)cc2c1-c1cn(CC2CCN(Cc3ccc(-c4cccc5[nH]ccc45)c(C(C)C)c3)CC2)nn1 [AB703, Isobutyl 3-(1-((1-(4-(1H-indol-4-yl)-3-isopropylbenzyl)piperidin-4-yl)methyl)-1H-1,2,3-triazol-4-yl)-5-fluoro-1H-indole-2-carboxylate]",–,inhibition at 1 µM (CK2; ATP 10 μM): 8%
"CC(=O)c1[nH]c2ccc(F)cc2c1-c1cn(CC2CCN(CCNS(=O)(=O)c3ccc(-c4c(F)cccc4C(F)(F)F)cc3)CC2)nn1 [AB1451, N-(2-(4-((4-(2-acetyl-5-fluoro-1H-indol-3-yl)-1H-1,2,3-triazol-1-yl)methyl)piperidin-1-yl)ethyl)-2′-fluoro-6′-(trifluoromethyl)-[1,1′-biphenyl]-4-sulfonamide]",7.35,–
"CCOC(=O)c1[nH]c2ccc(F)cc2c1-c1cn(CC2CCN(CCNS(=O)(=O)c3ccc(C(C)C)cc3)CC2)nn1 [AB579, Ethyl 5-fluoro-3-(1-((1-(2-((4-isopropylphenyl)sulfonamido)ethyl)piperidin-4-yl)methyl)-1H-1,2,3-triazol-4-yl)-1H-indole-2-carboxylate]",6.37,–
"CCCC(=O)c1[nH]c2ccc(F)cc2c1-c1cn(CC2CCN(CCNS(=O)(=O)c3ccc(-c4cccnc4Cl)cc3)CC2)nn1 [AB1233, N-(2-(4-((4-(2-butyryl-5-fluoro-1H-indol-3-yl)-1H-1,2,3-triazol-1-yl)methyl)piperidin-1-yl)ethyl)-4-(2-chloropyridin-3-yl)benzenesulfonamide]",–,"inhibition at 0.05 µM (CK2; compound at 0.05 μM, ATP 10 μM): 17%"
"O=S(=O)(NCCN1CCC(Cn2cc(-c3c[nH]c4ccccc34)nn2)CC1)c1ccc(Cl)cc1 [AB152, N-(2-(4-((4-(1H-Indol-3-yl)-1H-1,2,3-triazol-1-yl)methyl)piperidin-1-yl)ethyl)-4-chlorobenzenesulfonamide]",4.46,–
"CCC(=O)c1[nH]c2ccc(F)cc2c1-c1cn(CC2CCN(CCNS(=O)(=O)c3ccc(-c4c(OC)cccc4OC)cc3)CC2)nn1 [AB1416, N-(2-(4-((4-(5-fluoro-2-propionyl-1H-indol-3-yl)-1H-1,2,3-triazol-1-yl)methyl)piperidin-1-yl)ethyl)-2′,6′-dimethoxy-[1,1′-biphenyl]-4-sulfonamide]",7.00,–
"CC(C)COC(=O)c1[nH]c2ccc(F)cc2c1-c1cn(CC2CCN(CCNS(=O)(=O)c3ccc(-c4ccoc4)cc3)CC2)nn1 [AB1071, isobutyl 5-fluoro-3-(1-((1-(2-((4-(furan-3-yl)phenyl)sulfonamido)ethyl)piperidin-4-yl)methyl)-1H-1,2,3-triazol-4-yl)-1H-indole-2-carboxylate]",7.19,–
"CCOC(=O)c1[nH]c2ccc(F)cc2c1-c1cn(CC2CCN(CCNS(=O)(=O)c3ccc(Cl)cc3)CC2)nn1 [AB401, Ethyl 3-(1-((1-(2-((4-chlorophenyl)sulfonamido)ethyl)piperidin-4-yl)methyl)-1H-1,2,3-triazol-4-yl)-5-fluoro-1H-indole-2-carboxylate]",6.01,–
CC(=O)c1[nH]c2ccc(F)cc2c1-c1cn(C[C@H]2CCCN(CCNS(=O)(=O)c3ccc(CC(C)C)cc3)C2)nn1 [AB1403],–,inhibition at 0.1 µM (CK2; ATP 10 μM): 9%
"CCc1ccc(S(=O)(=O)NCCN2CCC(Cn3cc(-c4c(C(=O)OCCO)[nH]c5ccc(F)cc45)nn3)CC2)cc1 [AB597, 2-Hydroxyethyl 3-(1-((1-(2-((4-ethylphenyl)sulfonamido)ethyl)piperidin-4 yl)methyl)-1H-1,2,3-triazol-4-yl)-5-fluoro-1H-indole-2-carboxylate]",5.80,–
"CCOC(=O)c1[nH]c2ccc(Cl)cc2c1-c1cn(CC2CCN(CCNS(=O)(=O)c3ccc(CC)cc3)CC2)nn1 [AB543, Ethyl 5-chloro-3-(1-((1-(2-((4-ethylphenyl)sulfonamido)ethyl)piperidin-4-yl)methyl)-1H-1,2,3-triazol-4-yl)-1H-indole-2-carboxylate]",6.03,–
"CC(C)COC(=O)c1[nH]c2ccc(F)cc2c1-c1cn(CC2CCN(CCNS(=O)(=O)c3ccc(-c4c(F)cccc4F)cc3)CC2)nn1 [AB1208, isobutyl 3-(1-((1-(2-((2′,6′-difluoro-[1,1′-biphenyl])-4-sulfonamido)ethyl)piperidin-4-yl)methyl)-1H-1,2,3-triazol-4-yl)-5-fluoro-1H-indole-2-carboxylate]",7.35,–
"CC(C)COC(=O)c1[nH]c2ccc(F)cc2c1-c1cn(CC2CCN(CCNS(=O)(=O)c3ccc(OC(C)C)cc3)CC2)nn1 [AB917, isobutyl 5-fluoro-3-(1-((1-(2-((4-isopropoxyphenyl)sulfonamido)ethyl)piperidin-4-yl)methyl)-1H-1,2,3-triazol-4-yl)-1H-indole-2-carboxylate]",6.22,–
"CCCC(=O)c1[nH]c2ccc(F)cc2c1-c1cn(CC2CCN(CCNS(=O)(=O)Cc3ccc(C(F)(F)F)cc3)CC2)nn1 [AB1307, N-(2-(4-((4-(2-butyryl-5-fluoro-1H-indol-3-yl)-1H-1,2,3-triazol-1-yl)methyl)piperidin-1-yl)ethyl)-1-(4-(trifluoromethyl)phenyl)methanesulfonamide]",–,inhibition at 0.1 µM (CK2; ATP 10 μM): 12%
"CCc1ccc(S(=O)(=O)NCCN2CCC(Cn3cc(-c4c(C(=O)OCC(C)C)[nH]c5ccc(Cl)cc45)nn3)CC2)cc1 [AB557, Isobutyl 5-chloro-3-(1-((1-(2-((4-ethylphenyl)sulfonamido)ethyl)piperidin-4-yl)methyl)-1H-1,2,3-triazol-4-yl)-1H-indole-2-carboxylate]",6.25,–
"CC(C)COC(=O)c1[nH]c2ccc(F)cc2c1-c1cn(CC2CCN(CCNS(=O)(=O)c3ccc(C(F)(F)F)cc3)CC2)nn1 [AB600, Isobutyl 5-fluoro-3-(1-((1-(2-((4-(trifluoromethyl)phenyl)sulfonamido)ethyl)piperidin-4-yl)methyl)-1H-1,2,3-triazol-4-yl)-1H-indole-2-carboxylate]",6.46,–
"CC(C)COC(=O)c1[nH]c2ccc(F)cc2c1-c1cn(CC2CCN(Cc3ccc(OCC(C)C)c(Cl)c3)CC2)nn1 [AB760, Isobutyl 3-(1-((1-(3-chloro-4-isobutoxybenzyl)piperidin-4-yl)methyl)-1H-1,2,3-triazol-4-yl)-5-fluoro-1H-indole-2-carboxylate]",–,inhibition at 1 µM (CK2; ATP 10 μM): 15%
"CC(C)COC(=O)c1[nH]c2ccc(F)cc2c1-c1cn(CC2CCN(Cc3ccc(-c4ccc5[nH]ccc5c4)c(Cl)c3)CC2)nn1 [AB753, Isobutyl 3-(1-((1-(3-chloro-4-(1H-indol-5-yl)benzyl)piperidin-4-yl)methyl)-1H-1,2,3-triazol-4-yl)-5-fluoro-1H-indole-2-carboxylate]",–,inhibition at 1 µM (CK2; ATP 10 μM): 18%
"CC(=O)c1[nH]c2ccc(F)cc2c1-c1cn(CC2CCN(CCNS(=O)(=O)c3ccc(CC4CC4)cc3)CC2)nn1 [AB1317, N-(2-(4-((4-(2-acetyl-5-fluoro-1H-indol-3-yl)-1H-1,2,3-triazol-1-yl)methyl)piperidin-1-yl)ethyl)-4-(cyclopropylmethyl)benzenesulfonamide]",6.51,–
"CC(C)COC(=O)c1[nH]c2ccc(F)cc2c1-c1cn(CC2CCN(CCNS(=O)(=O)c3ccc(C4CCCCC4)cc3)CC2)nn1 [AB914, isobutyl 3-(1-((1-(2-((4-cyclohexylphenyl)sulfonamido)ethyl)piperidin-4-yl)methyl)-1H-1,2,3-triazol-4-yl)-5-fluoro-1H-indole-2-carboxylate]",7.15,–
"CC(C)CCOC(=O)c1[nH]c2ccc(F)cc2c1-c1cn(CC2CCN(CCNS(=O)(=O)c3ccc(CC(C)C)cc3)CC2)nn1 [AB669, Isopentyl 5-fluoro-3-(1-((1-(2-((4-isobutylphenyl)sulfonamido)ethyl)piperidin-4-yl)methyl)-1H-1,2,3-triazol-4-yl)-1H-indole-2-carboxylate]",–,inhibition at 1 µM (CK2; ATP 10 μM): 32%
